A short description of the experiment: Inhibition of EGF-dependent mouse keratinocyte MK cell proliferation.

Consider `COc1cc2ncnc(Nc3cccc(Cl)c3)c2cc1OC`, for which the concentration for half-maximal inhibition (IC50) was under 100 nM.

The values above are taken from BindingDB's records for doi:10.1021/jm980551o (Novartis, 1999).
